The test system of test [1] is Micrococcus luteus. Description: Antibacterial activity against Sarcina lutea ATCC 9341 at 25 ug/disk after 24 hrs by agar diffusion assay. As to conditions: ATCC 9341, 24 h, read-out: DIZ. The format is functional. (In agar diffusion tests the substance spreads into inoculated agar from a disc or well.)
The test system of test [2] is Staphylococcus aureus. Put plainly: Antibacterial activity against Staphylococcus aureus ATCC 25923 at 25 ug/disk after 24 hrs by agar diffusion assay. To be noted: ATCC 25923, 24 h, read-out: DIZ. The format is functional.
Test [3] has as its system Pseudomonas aeruginosa. Put plainly: Antibacterial activity against Pseudomonas aeruginosa ATCC 27853 at 25 ug/disk after 24 hrs by agar diffusion assay. The format is functional. As to conditions: ATCC 27853, 24 h, read-out: DIZ.
Test [4] has as its system Bacillus cereus. Description: Antibacterial activity against Bacillus cereus ATCC 14579 at 25 ug/disk after 24 hrs by agar diffusion assay. The test is classed as functional. To be noted: ATCC 14579, 24 h, read-out: DIZ.
In test [5] the test system is Bacillus subtilis. Put plainly: Antibacterial activity against Bacillus subtilis at 25 ug/disk after 24 hrs by agar diffusion assay. As to conditions: read-out: DIZ. The test is classed as functional.
Test [6] concerns Escherichia coli. Description: Antibacterial activity against Escherichia coli ATCC 25922 at 25 ug/disk after 24 hrs by agar diffusion assay. The format is functional. To be noted: ATCC 25922, 24 h, read-out: DIZ.
Test [7] relates to Escherichia coli. Put plainly: Antibacterial activity against Escherichia coli ATCC 25922 at 10 mg/ml after 24 hrs by agar diffusion assay. The test is classed as functional. To be noted: ATCC 25922, 24 h, read-out: DIZ.
Test [8] has as its system Bacillus cereus. Description: Antibacterial activity against Bacillus cereus ATCC 14579 at 10 mg/ml after 24 hrs by agar diffusion assay. To be noted: ATCC 14579, 24 h, read-out: DIZ. The format is functional.
The subject of test [9] is Staphylococcus aureus. Put plainly: Antibacterial activity against Staphylococcus aureus ATCC 25923 at 10 mg/ml after 24 hrs by agar diffusion assay. The test is classed as functional. As to conditions: ATCC 25923, 24 h, read-out: DIZ.
Test [10] relates to [Candida] sake. Put plainly: Antifungal activity against Candida sake at 10 mg/ml after 48 hrs by agar diffusion assay. The test is classed as functional. As to conditions: Fermentozyma sake, read-out: DIZ.
Test [11] concerns Micrococcus luteus. Description: Antibacterial activity against Sarcina lutea ATCC 9341 at 10 mg/ml after 24 hrs by agar diffusion assay. The format is functional. To be noted: ATCC 9341, 24 h, read-out: DIZ.
Test [12] has as its system Nakaseomyces glabratus. Description: Antifungal activity against Candida glabrata ATCC MYA 2950 at 10 mg/ml after 48 hrs by agar diffusion assay. The test is classed as functional. As to conditions: ATCC MYA 2950, 48 h, read-out: DIZ.
For test [13], the system named is Pseudomonas aeruginosa. Description: Antibacterial activity against Pseudomonas aeruginosa ATCC 27853 at 10 mg/ml after 24 hrs by agar diffusion assay. The test is classed as functional. As to conditions: ATCC 27853, 24 h, read-out: DIZ.
In test [14] the test system is Bacillus subtilis. Put plainly: Antibacterial activity against Bacillus subtilis at 10 mg/ml after 24 hrs by agar diffusion assay. The format is functional. To be noted: read-out: DIZ.
Test [15] deals with Candida albicans. Put plainly: Antifungal activity against Candida albicans ATCC 10231 at 10 mg/ml after 48 hrs by agar diffusion assay. The test is classed as functional. As to conditions: ATCC 10231, 48 h, read-out: DIZ.
Test [16] deals with Pseudomonas aeruginosa. Put plainly: Antibacterial activity against Pseudomonas aeruginosa ATCC 27853 at 30 ug/disk after 24 hrs by agar diffusion assay. The test is classed as functional. To be noted: ATCC 27853, 24 h, read-out: DIZ.
Test [17] concerns Micrococcus luteus. Put plainly: Antibacterial activity against Sarcina lutea ATCC 9341 at 30 ug/disk after 24 hrs by agar diffusion assay. The test is classed as functional. To be noted: ATCC 9341, 24 h, read-out: DIZ.
The subject of test [18] is Bacillus subtilis. Put plainly: Antibacterial activity against Bacillus subtilis at 30 ug/disk after 24 hrs by agar diffusion assay. The test is classed as functional. As to conditions: read-out: DIZ.
Test [19] has as its system Bacillus cereus. Description: Antibacterial activity against Bacillus cereus ATCC 14579 at 30 ug/disk after 24 hrs by agar diffusion assay. The test is classed as functional. As to conditions: ATCC 14579, 24 h, read-out: DIZ.
Test [20] concerns Staphylococcus aureus. Put plainly: Antibacterial activity against Staphylococcus aureus ATCC 25923 at 30 ug/disk after 24 hrs by agar diffusion assay. The test is classed as functional. As to conditions: ATCC 25923, 24 h, read-out: DIZ.
Test [21] has as its system Escherichia coli. Description: Antibacterial activity against Escherichia coli ATCC 25922 at 30 ug/disk after 24 hrs by agar diffusion assay. The test is classed as functional. As to conditions: ATCC 25922, 24 h, read-out: DIZ.
Test [22] deals with Candida albicans. Description: Antifungal activity against Candida albicans ATCC 10231 at 100 mg/disk after 48 hrs by agar diffusion assay. The test is classed as functional, organism-based.
In test [23] the test system is Nakaseomyces glabratus. Put plainly: Antifungal activity against Candida glabrata ATCC MYA 2950 100 mg/disk after 48 hrs by agar diffusion assay. The test is classed as functional, organism-based.
Test [24] concerns [Candida] sake. Description: Antifungal activity against Candida sake 100 mg/disk after 48 hrs by agar diffusion assay. The format is functional, organism-based.

For `CC1(C)S[C@@H]2[C@H](NC(=O)[C@H](N)c3ccccc3)C(=O)N2[C@H]1C(=O)O` [AMPICILLIN], the zone of inhibition at 25 µg/disc in test [1] was 30 mm; in test [2] it was 25 mm; in test [3] it was 0 mm; in test [4], 0 mm; in test [5], 25 mm; in [6], 20 mm.
As to `C=C1CC[C@H]2C(C)(C)CCC[C@]2(C)[C@H]1CC(=O)Nc1ncccn1`, the zone of inhibition at 10000 µg/mL came to 10 mm in [7]; 12 mm in [8]; 14 mm in [9]; 0 mm in test [10]; 19 mm in [11]; 0 mm in test [12]. The figures for the zone of inhibition at 10000 µg/mL in test [13], in test [14] and in test [15] were 0 mm, 7 mm and 0 mm, respectively.
Consider `O=C(N[C@H](CO)[C@H](O)c1ccc([N+](=O)[O-])cc1)C(Cl)Cl` [CHLORAMPHENICOL], for which the zone of inhibition at 30 µg/disc in [16] was determined as 19 mm; in [17], 30 mm; in test [18] it was 31 mm; in [19], 28 mm; in test [20], 25 mm; in test [21], 29 mm.
As to `C=C1CC[C@H]2C(C)(C)CCC[C@]2(C)[C@H]1CC(=O)Nc1ccncn1`, the zone of inhibition at 10000 µg/mL in test [7] is 12 mm; in [8] it was 10 mm; in test [9] it was 15 mm; in test [10], 0 mm; in test [11], 18 mm; in [12], 0 mm. For the same compound, the values for the zone of inhibition at 10000 µg/mL in [13], in [14] and in test [15] were 0 mm, 7 mm and 0 mm, respectively.
On to NYSTATIN, for which the inhibition zone (IZ) in test [22] stood at 29 mm; in [23] it was 26 mm; in test [24], 31 mm.
As for `C=C1CC[C@H]2C(C)(C)CCC[C@]2(C)[C@H]1CC(=O)N(C(=O)C[C@H]1C(=C)CC[C@H]2C(C)(C)CCC[C@]12C)c1ncccn1`, the zone of inhibition at 10000 µg/mL in test [7] is 0 mm; in [8], 0 mm; in test [9], 10 mm; in [10], 0 mm; in test [11] it was 0 mm; in test [12], 0 mm. Moreover, the zone of inhibition at 10000 µg/mL in [13] is 10 mm; in test [14], 0 mm; in [15], 0 mm.
With `C=C1CC[C@H]2C(C)(C)CCC[C@]2(C)[C@H]1CC(=O)Nc1cnccn1`, the zone of inhibition at 10000 µg/mL was found to be 0 mm in test [7]; 10 mm in [8]; 15 mm in test [9]; 0 mm in test [10]; 0 mm in test [11]; 0 mm in [12]. The zone of inhibition at 10000 µg/mL in [13], in test [14] and in [15] was 0 mm each time.
In the case of `C=C1CC[C@H]2C(C)(C)CCC[C@]2(C)[C@H]1CC(=O)N(C(=O)NC1CCCCC1)C1CCCCC1`, the zone of inhibition at 10000 µg/mL in test [7] came to 0 mm; in test [8], 11 mm; in [9] it was 19 mm; in test [10], 0 mm; in [11], 0 mm; in test [12], 0 mm. The zone of inhibition at 10000 µg/mL in test [13], in [14] and in [15] was 0 mm each time.
